From patent publication US20220409602A1, “DOPAMINE D3 RECEPTOR LIGANDS FOR TREATMENT OF DYSKINESIA” (TEXAS BIOMEDICAL RESEARCH INSTITUTE, priority 2021, published 2022)
“Also recorded” adds a separate entry of the source. Blank lines part the entries; values can stand above or below the molecule they belong to.

Columns and labels:
Type in all cases: in vivo, marmoset
[1] = system: Parkinsonian marmosets with levodopa-induced dyskinesia; assay: levodopa-induced dyskinesia in MPTP Parkinsonian marmosets, dyskinesia rating scale; settings: for expression of levodopa-induced dyskinesia: oral, with levodopa 20 mg/kg, test drug 10 mg/kg where stated
Procedure: (§1) Briefly, MPTP (Sigma Aldrich) (dissolved in physiological saline) at a concentration of 2 mg/ml was subcutaneously injected (2 mg/kg B.wt) for 5 consecutive days. After a wash out period of 72 hours from last MPTP injection, the marmosets were returned to their home cages and monitored twice daily for rest of the study period.
(§2) For induction of dyskinesias, Levodopa (Sigma Aldrich) and carbidopa (Sigma Aldrich) at 1:1 were administered orally once daily for 5 days of a week. The drugs were mixed in either Ensure® pudding, cottage cheese, or marshmallows. […] Once the animals were acclimated to the drugs, the dose was increased to 20 mg/kg B.wt and continued for next 6 weeks.
The severity of dyskinesia in the marmosets was categorized using a validated dyskinesia rating scale for NHPs. Dyskinesia was analyzed from 5-minute videos of the monkeys recorded at every 30 minutes on Tuesday, Wednesday and Thursday of each week. The videos were recorded between 9:30 AM-4:30 PM. Each day the vehicle or drugs were administered at 11:30 AM. The severity of dyskinesias was scored for different segments of the animal's body on a scale from 0 to 3, with 0=absent, 1=mild, 2=moderate, 3=severe. The body segments scored were: 1. Right upper limb dyskinesias (0-3); 2. Left upper limb dyskinesias (0-3); 3. Right lower limb dyskinesias (0-3); 4. left lower limb dyskinesias (0-3); 5. Trunk dyskinesias (0-3); 6, Head/facial dyskinesias (0-3). The severity of the rating was based on the frequency and amplitude of the abnormal movements. The total score is deducted from the six sub-scores to yield a dyskinesia score of 0 to 3: with 0=absent, 1=mild, manifesting by transient abnormal involuntary movements with choreic form, flicking of arms and limbs, increased running and hopping in the cages. […] 3=severe, characterized by a sustained dyskinesia manifesting with chorea and athetosis with sinuous writhing movements of the limbs, and dystonia with sustained extension of hind limbs and knees. The animals are unable to reach and grasp for treats (Video 1).

Parkinsonian marmosets [2] = assay: Parkinson's Disease Rating Scale (PDRS) in dyskinetic Parkinsonian marmosets
Procedure: as §1, with “All the animals (n=3) have been previously treated with MPTP as described in detail. Briefly,” for “Briefly,”
as §2
The severity of symptoms in the marmosets was categorized using a validated Parkinsonian rating scale for NHP. The PDRS correlates highly with striatal dopamine concentrations detected by postmortem immunohistopathology and it is modeled on the Unified Parkinson's Disease Rating Scale (UPDRS) and the Hoehn & Yahr scale used clinically to categorize PD patients. The PDRS was performed in daylight by video recording animals for 30 minutes. The evaluation was carried out biweekly before and after MPTP injections. The videos were scored by a blinded operator using PDRS, with a maximal disability score of 57 in the following manner: 0=normal, 1=mild, 2=moderate, 3=severe; rest tremor, action tremor, tremor of the head, tremor right arm, tremor left arm, freezing, locomotion, fine motor skills right hand, fine motor skills left hand, bradykinesia right arm, bradykinesia left arm, posture, hypokinesia, balance, posture, startle response, gross motor skills right hand and gross motor skills left hand, apathy (defined as a state of indifference), vocalization, drooling or frothing, tongue/face/lips. Independently of the PDRS, rigidity was assessed by evaluating the resistance to passive joint movements and the range of motion during reaching for food. […]

Parkinsonian marmosets [3] = assay: motor activity recorded by actiwatch-mini during levodopa-induced dyskinesia; settings: for motor activity / hyperactivity during peak-dose dyskinesia (actiwatch-mini): test drug 10 mg/kg with levodopa 20 mg/kg
Procedure: as §2
(§3) The diurnal and nocturnal behavior of the marmosets was monitored using the actiwatch mini (Camntech, UK) as previously described. The device is an accelerometer that measures the intensity of the test subject's omnidirectional movements in units or counts that are directly proportional to the animal's activity. The device (2 cm in diameter) was placed on a collar around the neck of the marmoset. The animals were acclimatized to the collar in short sessions of 15 min followed by gradual increments of 30 min, 1 hr, 3 hrs, 6 hrs and 12 hrs. Once acclimatized, the actiwatch mini was attached to the collar and the activity-rest data was recorded for a period of 24 hours on 3 separate days of each treatment. The actiwatches were placed on animals at 8:30 AM and the devices were preset to start recording activity data from 9:00 AM. At 11:30 AM either the vehicle or the drugs were orally administered to the animals. The following day, the actiwatch was removed after 9:00 AM and the data was transferred to a computer through an actiwatch reader using the actiwatch activity and sleep analysis-7 software (Camntech, UK). For sleep analysis, the period of sustained quiescence (marmosets sleep cycle) starting at 7:00 PM in the evening to early morning 6:30 AM (approximately 11½ hrs) was analyzed using the sleep analysis-7 software to quantify the sleep quality and wakeful periods. The duration of sleep time was corrected for individual variations in the animal's behavior to fall asleep at different time of the evening, thereby keeping the period of sleep time analyzed same for all the animals. The analyzed data was then exported to Excel® and plotted using the Graph pad prism statistical software. To determine the change in activity after the administration of drugs, actiwatch data in 10-minute bins were exported using the actiwatch activity and sleep analysis-7 software and plotted in Graph Pad Prism.

Parkinsonian marmosets [4] = assay: PD-like symptoms and object retrieval task with barrier detour; settings: compared to control or SWR-3-73
Procedure: The PD-like symptoms evaluated included tremors, bradykinesia, and posture and general activity measured by an accelerometer device, the Actiwatch mini. In addition, motor and cognitive functions were measured using the object retrieval task with barrier detour.
The object retrieval task with a barrier detour is a reward based behavioral testing system that was previously described to evaluate motor and cognitive functions of NHP. Briefly, the task requires the test subject to retrieve a reward (marshmallow) fastened to a tray from the open side (bypassing the barrier) of a transparent box. […] All parameters measured were previously described in detail. […] The entire process was recorded using a video camera and the recordings were then analyzed and scored by a blinded experimenter. During each trial, the following responses were scored (1) ability of the animal to reach the front, left, or right side of the box, scored under the term “reach act”; (2) hand of choice for the reach, either left or right, scored under the term “hand used”; (3) the outcome of the reach, either success or failure, scored under result section.
Using the above parameters, additional variables were analyzed: 1) Motor problem: Reaching into the open side of the box but without retrieving the reward. […]

Parkinsonian marmosets [5] = assay: nocturnal activity and sleep analysis by actiwatch-mini; settings: with levodopa 20 mg/kg
Procedure: as §2, §3

[6] = PD13R 0.1 to 10 mg/kg, SWR-3-73 and amantadine 10 mg/kg
[7] = first week of high dose levodopa/carbidopa 20 mg/kg
[8] = levodopa 20 mg/kg combined with vehicle
[9] = levodopa 20 mg/kg acute challenge

Structure (SMILES): N#Cc1cccc(N2CCN(CCCCNC(=O)c3ccc(-c4ccsc4)cc3)CC2)c1 [PD13R]
reduction of the expression of dyskinesia in the peak-dose period ([1]; 10 mg/kg with levodopa 20 mg/kg): approximately 85% | anti-dyskinetic effects ([1]; PD13R 0.1 mg/kg with levodopa 20 mg/kg): no anti-dyskinetic effects were observed | time to reach peak-dose dyskinesia ([1]; PD13R 5 mg/kg with levodopa 20 mg/kg): 1 h | dose with optimal anti-dyskinetic outcome ([1]; dose range with levodopa 20 mg/kg): 10 mg/kg | expression of levodopa-induced dyskinesia [1]: inhibited the expression of levodopa-induced dyskinesia; also recorded: significantly suppresses the expression of levodopa-induced dyskinesia; also recorded: eliminates the expression of levodopa-induced dyskinesia; also recorded: eliminated the levodopa-induced dyskinesia; also recorded: significantly inhibited the expression of dyskinesias | Parkinson's Disease Rating Scale (PDRS) (Parkinsonian marmosets [2]; PD13R 10 mg/kg with levodopa in dyskinetic marmosets): significantly improved the PDRS | hyperactivity during the peak-dose period (actograms) (Parkinsonian marmosets [3]; PD13R 0.1 to 10 mg/kg with levodopa 20 mg/kg): dose-dependent and significant reduction in the hyperactivity | motor activity / hyperactivity during peak-dose dyskinesia (actiwatch-mini) (Parkinsonian marmosets [3]): motor activity remained within the therapeutic ON-period zone without dyskinesia; also recorded: maintained the motor activity within the ON-period without dyskinesia; also recorded: kept the motor activity within the ON-period; also recorded: inhibited the increased hyperactivity | PD-like symptoms and movement coordination (Parkinsonian marmosets [4]): clear improvement in all PD-like symptoms and movement coordination

Structure (SMILES): NC12CC3CC(CC(C3)C1)C2 [amantadine]
expression of levodopa-induced dyskinesia [1]: inhibited the expression of dyskinesia; also recorded: significantly inhibited the expression of dyskinesias | motor activity / hyperactivity during peak-dose dyskinesia (actiwatch-mini) (Parkinsonian marmosets [3]): inhibited the increased hyperactivity | motor activity / hyperactivity during peak-dose dyskinesia (actiwatch-mini) (Parkinsonian marmosets [3]; listed as Amantadine): maintained the motor activity within the ON-period without dyskinesia | actual awake time during the assumed sleep period (Parkinsonian marmosets [5]): actual awake time was significantly increased | effect on sleep (overall) (Parkinsonian marmosets [5]): experienced abnormal irregular sleep and sleep disturbances | nocturnal activity (Parkinsonian marmosets [5]; [6]): clear abnormal increase in nocturnal activity; also recorded: significant increase in nocturnal activity | sleep efficiency (Parkinsonian marmosets [5]; [6]): significantly dropped; also recorded: decrease in sleep efficiency; also recorded: sleep efficiency significantly decreased

duration of dyskinesia after dosing ([1]; 6th week of high dose levodopa 20 mg/kg): up to 4 hours | duration of abnormal involuntary movements [1, 7]: up to 180 minutes | time after dosing at which abnormal involuntary movements became visible [1, 7]: approximately 30 minutes | duration of the peak-dose period of dyskinesias [1, 8]: 2 h | time to reach the peak-dose period of dyskinesias after dosing [1, 8]: 30 min | highest dyskinesia disability score ([1]; levodopa 20 mg/kg combined with vehicle, scale 0 to 3): 3 | Parkinsonian symptoms (PDRS) (Parkinsonian marmosets [2]; high doses of levodopa): worsened the Parkinsonian symptoms | time to cross the dyskinesia threshold after injection (motor activity) (Parkinsonian marmosets [3]; [9]): ≤ 30 min | time to return to the ON-period without dyskinesia (Parkinsonian marmosets [3]; [9]): approximately 145 minutes
Structure (SMILES): N[C@@H](Cc1ccc(O)c(O)c1)C(=O)O [levodopa, L-3,4-dihydroxy-phenylalanine]
PDRS (Parkinsonian marmosets [2]; physiological doses of levodopa): improved the PDRS
